In article PMC5144158 (Chemical research in toxicology, 2016):
Entries after “also recorded” stand apart in the source; their conditions may differ. Where two headings read alike, the source gives them in different places.

What was measured:
male rodents = details: varying treatment modalities, ref [5]–[7]; cited from earlier work
hCAR1 = target: T1, hCAR1 (Homo sapiens, UniProt Q14994); test: Transactivation luciferase reporter assay in COS-1 cells, CMV2-CAR1; assay type: cell-based; details: COS-1, 2B6-XREM-PBREM reporter, ANDRO 10 μM, 24 h, Figure 2
T1 sequence (Q14994 1-348 isoform Q14994-2): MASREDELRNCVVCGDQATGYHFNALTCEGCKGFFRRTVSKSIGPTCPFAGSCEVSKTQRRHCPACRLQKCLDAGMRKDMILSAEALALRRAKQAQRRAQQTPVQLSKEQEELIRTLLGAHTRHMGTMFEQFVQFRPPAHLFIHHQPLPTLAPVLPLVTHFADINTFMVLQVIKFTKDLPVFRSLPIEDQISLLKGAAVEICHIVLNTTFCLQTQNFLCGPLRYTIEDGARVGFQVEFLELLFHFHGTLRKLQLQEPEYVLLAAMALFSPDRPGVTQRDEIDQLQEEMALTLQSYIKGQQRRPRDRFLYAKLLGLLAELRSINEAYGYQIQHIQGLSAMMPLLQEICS

[1] = system: rodent PPAR and CAR target genes; details: in vivo rodent studies, ref [29],[30]; cited from earlier work
Wild-type mice = details: PPARα knockout mice not protected, ref [59]; cited from earlier work
[2] = system: hPPARα, hPPARβ/∂, and hPPARγ; test: PPRE reporter transactivation assays, statements on the hPPARs collectively; assay type: cell-based, human
hCAR3 = target: T2, hCAR3 (Homo sapiens, UniProt Q14994, DEL233-236); test: Transactivation luciferase reporter assay in COS-1 cells, CMV2-CAR3; assay type: cell-based; details: COS-1, 2B6-XREM-PBREM reporter, 24 h, Figure 2
T2 sequence (Q14994 with tags, fused parts or gaps isoform Q14994-8 DEL233-236): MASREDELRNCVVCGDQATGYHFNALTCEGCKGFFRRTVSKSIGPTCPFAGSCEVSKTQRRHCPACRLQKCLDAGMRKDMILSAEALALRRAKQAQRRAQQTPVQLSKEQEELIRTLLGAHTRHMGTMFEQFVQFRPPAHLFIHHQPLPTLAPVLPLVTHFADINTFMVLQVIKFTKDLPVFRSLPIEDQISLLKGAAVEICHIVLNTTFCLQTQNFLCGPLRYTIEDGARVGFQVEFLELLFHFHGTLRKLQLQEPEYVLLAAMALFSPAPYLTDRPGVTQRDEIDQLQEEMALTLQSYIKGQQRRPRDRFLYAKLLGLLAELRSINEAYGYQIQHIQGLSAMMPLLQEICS
T2 sequence (P19793 1-462 partner): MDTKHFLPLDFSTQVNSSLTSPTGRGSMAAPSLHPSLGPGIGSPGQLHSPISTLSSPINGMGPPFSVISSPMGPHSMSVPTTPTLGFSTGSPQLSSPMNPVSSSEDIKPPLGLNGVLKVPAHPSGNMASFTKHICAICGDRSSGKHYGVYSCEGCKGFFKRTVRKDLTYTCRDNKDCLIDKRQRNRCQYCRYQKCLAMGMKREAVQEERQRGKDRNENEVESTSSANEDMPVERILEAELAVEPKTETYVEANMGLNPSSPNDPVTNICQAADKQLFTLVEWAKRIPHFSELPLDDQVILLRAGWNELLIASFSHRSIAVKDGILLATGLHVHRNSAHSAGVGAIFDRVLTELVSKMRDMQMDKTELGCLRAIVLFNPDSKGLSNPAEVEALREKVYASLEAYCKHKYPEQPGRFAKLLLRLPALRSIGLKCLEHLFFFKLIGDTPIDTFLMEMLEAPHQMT

hPXR [3] = target: T3, hPXR (Homo sapiens, UniProt O75469); test: Transactivation luciferase reporter assay in COS-1 cells, CMV2-PXR; details: for activation of hPXR (screen): COS-1, 2B6-XREM-PBREM reporter, Figure 2
T3 sequence (O75469 1-434): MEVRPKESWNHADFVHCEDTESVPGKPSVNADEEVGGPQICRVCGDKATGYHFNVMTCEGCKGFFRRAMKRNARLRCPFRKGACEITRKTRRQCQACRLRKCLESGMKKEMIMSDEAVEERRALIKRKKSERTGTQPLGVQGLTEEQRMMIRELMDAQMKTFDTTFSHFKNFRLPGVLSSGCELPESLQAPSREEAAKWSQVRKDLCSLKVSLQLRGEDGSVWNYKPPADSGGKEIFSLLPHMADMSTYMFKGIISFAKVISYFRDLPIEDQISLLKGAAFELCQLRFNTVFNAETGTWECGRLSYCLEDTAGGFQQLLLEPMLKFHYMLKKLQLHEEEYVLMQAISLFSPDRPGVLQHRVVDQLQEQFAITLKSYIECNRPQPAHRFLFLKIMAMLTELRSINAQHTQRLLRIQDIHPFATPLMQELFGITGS
T3 sequence (P19793 1-462 partner): T2 sequence (P19793 1-462 partner)

female rodents = details: ref [8]; cited from earlier work
hCAR2 [4] = target: T4, hCAR2 (Homo sapiens, UniProt Q14994); test: Transactivation luciferase reporter assay in COS-1 cells, CMV2-CAR2; assay type: cell-based; details: for activation of hCAR2 (screen): COS-1, 2B6-XREM-PBREM reporter, Figure 2; for activation of hCAR2 (dose–response): COS-1, 24 h
T4 sequence (Q14994 1-352): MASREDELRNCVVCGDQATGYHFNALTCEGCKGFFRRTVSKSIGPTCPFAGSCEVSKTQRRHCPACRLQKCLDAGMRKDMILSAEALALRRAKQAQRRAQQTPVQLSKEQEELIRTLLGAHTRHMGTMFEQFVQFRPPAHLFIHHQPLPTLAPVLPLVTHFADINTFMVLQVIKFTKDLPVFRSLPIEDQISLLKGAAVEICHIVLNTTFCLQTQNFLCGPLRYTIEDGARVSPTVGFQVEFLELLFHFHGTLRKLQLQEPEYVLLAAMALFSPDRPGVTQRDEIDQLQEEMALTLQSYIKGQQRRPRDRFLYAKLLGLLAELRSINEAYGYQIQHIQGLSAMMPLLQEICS
T4 sequence (P19793 1-462 partner): T2 sequence (P19793 1-462 partner)

3T3L1 cells = details: cited from earlier work
hPPARα = target: T5, hPPARα (Homo sapiens, UniProt Q07869); assay type: cell-based; details: COS-1, 24 h, Figure 4A
T5 sequence (Q07869 1-468): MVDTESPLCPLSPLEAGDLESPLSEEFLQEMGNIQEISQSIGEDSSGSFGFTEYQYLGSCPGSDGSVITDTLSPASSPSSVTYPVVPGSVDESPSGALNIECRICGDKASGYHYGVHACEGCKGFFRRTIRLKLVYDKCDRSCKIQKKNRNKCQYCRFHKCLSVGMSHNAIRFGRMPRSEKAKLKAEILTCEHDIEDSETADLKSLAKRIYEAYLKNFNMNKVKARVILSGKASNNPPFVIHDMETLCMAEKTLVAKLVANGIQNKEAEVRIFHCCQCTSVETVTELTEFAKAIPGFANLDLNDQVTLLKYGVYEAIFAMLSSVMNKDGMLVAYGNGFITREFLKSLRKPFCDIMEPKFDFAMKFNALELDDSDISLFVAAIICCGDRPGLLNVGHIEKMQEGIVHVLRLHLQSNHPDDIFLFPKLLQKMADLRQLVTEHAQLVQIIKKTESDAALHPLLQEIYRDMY

hCAR2 [5] = target: hCAR2 (Homo sapiens, UniProt Q14994); test: Mammalian two-hybrid assay, CAR LBD with SRC1, COS-1 cells; assay type: cell-based; details: COS-1, 24 h, Figure 5
CYP2B6 = test: Primary human hepatocyte mRNA expression; details: donor HH3, 30 μM, 24 h
hPXR [6] = target: hPXR (Homo sapiens, UniProt O75469); test: Mammalian two-hybrid assay, PXR LBD with SRC1, COS-1 cells; details: COS-1, 24 h, Figure 5
[7] = system: PPAR target genes (ACOX1, ANGPTL4, CPT2, PDK4); test: Primary human hepatocyte mRNA expression; assay type: cell-based; details: primary human hepatocytes HH1–HH3, 24 h; for expression of PPAR target genes (overall): MEHP/MiNP 0.1–30 μM
hCAR variants and hPXR = details: transactivation assays, ref [47]; cited from earlier work
hPPARβ/∂ = target: T6, hPPARβ/∂ (Homo sapiens, UniProt Q03181); assay type: cell-based; details: COS-1, 24 h, Figure 4B
T6 sequence (Q03181 1-441): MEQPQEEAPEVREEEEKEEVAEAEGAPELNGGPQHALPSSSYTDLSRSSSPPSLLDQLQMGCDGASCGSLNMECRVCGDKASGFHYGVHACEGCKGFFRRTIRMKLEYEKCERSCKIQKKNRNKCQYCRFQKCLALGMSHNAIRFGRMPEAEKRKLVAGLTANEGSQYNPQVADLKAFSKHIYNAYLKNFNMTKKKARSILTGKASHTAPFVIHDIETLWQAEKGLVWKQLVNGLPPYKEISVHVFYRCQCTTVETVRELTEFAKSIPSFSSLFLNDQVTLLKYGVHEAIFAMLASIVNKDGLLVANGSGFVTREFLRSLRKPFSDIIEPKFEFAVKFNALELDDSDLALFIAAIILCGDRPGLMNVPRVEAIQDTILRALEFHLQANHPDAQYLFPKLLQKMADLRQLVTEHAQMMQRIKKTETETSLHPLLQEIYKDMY

## CCCCC(CC)COC(=O)c1ccccc1C(=O)OCC(CC)CCCC (centres unmarked) [DEHP, di(2-ethylhexyl) phthalate]
Male rodents
  testosterone levels, reproductive organ weights, sperm counts, sperm motility: decrease testosterone levels, reproductive organ weights, sperm counts, and sperm motility
hCAR1
  activation of hCAR1 (screen): only minimal activity; also recorded: little or no activation of hCAR1
[1]
  activation of rodent PPAR and CAR target genes: activation of rodent PPAR and CAR target genes
Wild-type mice
  phenotype on control diet or high fat diet: exhibited a lean phenotype
[2]; COS-1, 24 h, Figure 3, effects only at highest test dose (100 μM)
  activation of the PPRE reporter by hPPARs (screen): neither DEHP nor DiNP activated the hPPARs
[2]; hPPARα and hPPARγ, higher doses than screening, data not shown
  activation of the hPPARs (dose–response, higher doses): neither of the diphthalates activated the hPPARs
hCAR3
  activation of hCAR3 (screen): only minimal activity
hPXR [3]
  EC50: 3.5 µM
hPXR [3]; 24 h
  activation of hPXR (screen): activated hCAR2 and hPXR
hPXR [3]; COS-1, 3A4-XREM reporter, 24 h, Figure 6/Table 4
  max fold activation (hPXR): 13.7 fold
Female rodents
  estradiol levels and estrus cycle: Decreased estradiol levels and estrus cycle disruptions
hCAR2 [4]
  EC50: 0.1 µM
hCAR2 [4]; 24 h
  activation of hCAR2 (screen): activated hCAR2 and hPXR
hCAR2 [4]; COS-1, CYP2B6-PBREM-XREM reporter, 24 h, Figure 6/Table 4
  max fold activation (hCAR2): 7.1 fold

## CCCCC(CC)COC(=O)c1ccccc1C(=O)O (centres unmarked) [MEHP, mono-(2-ethylhexyl)phthalate]
hCAR1
  activation of hCAR1 (screen): slight activation of hCAR1 and hCAR3 at the highest doses; also recorded: little or no activation of hCAR1
3T3L1 cells; 3T3L1 cells, ref [42]
  expression of PPARγ target genes involved in adipocyte differentiation: induced expression of PPARγ target genes
3T3L1 cells; 3T3L1 preadipocytes, ref [41],[42]
  cellular lipid and triglyceride content: increased cellular lipid and triglyceride content
hPPARα
  activation of hPPARα (dose–response): very little activation of hPPARα
hCAR2 [5]
  hCAR interaction with SRC1 / activation (mammalian two-hybrid): interacted with SRC1 in a dose-dependent manner
CYP2B6
  CYP2B6 mRNA expression: increased expression of CYP2B6
hCAR3
  activation of hCAR3 (screen): slight activation of hCAR1 and hCAR3 at the highest doses
hPXR [3]; 24 h
  activation of hPXR (screen): moderate activation of hPXR
hPXR [3]; read-out: EC50 (hPXR), COS-1, 3A4-XREM reporter, 24 h, Figure 6/Table 4
  EC50: 27 µM
hPXR [6]
  hPXR interaction with SRC1 / activation (mammalian two-hybrid): interacted with SRC1 in a dose-dependent manner
hCAR2 [4]; 24 h
  activation of hCAR2 (screen): significant activation of hCAR2
hCAR2 [4]; transactivation dose–response, Figure 4B
  rank order potency across receptors: hCAR2 > hPXR > hPPARγ ≥ PPARβ/∂
[7]
  expression of PPAR target genes (overall): Neither MEHP nor MiNP induced expression of any PPAR target genes; also recorded: no activation of PPAR target genes

## Cc1c(C)c2c(c(C)c1O)CCC(C)(COc1ccc(CC3SC(=O)NC3=O)cc1)O2 (centres unmarked) [TG, troglitazone]
hCAR variants and hPXR
  activation of hCAR variants and hPXR: activates hCAR variants and hPXR
[7]; 50 μM WY14643, 30 μM TG
  ANGPTL4 mRNA expression: inducing only ANG and CPT in HH3
  CPT2 mRNA expression: inducing only ANG and CPT in HH3
[7]
  expression of PPAR target genes (overall): weak inducer of PPAR target genes

## O=C(O)c1ccccc1C(=O)OCc1ccccc1 [MBzP, monobenzyl phthalate]
hPPARβ/∂
  activation of hPPARβ/∂ (dose–response): only minor activation
hPPARα
  activation of hPPARα (dose–response): activated hCAR2 and PPARα with similar potency
hCAR2 [5]
  hCAR interaction with SRC1 / activation (mammalian two-hybrid): no activation
hPXR [3]; COS-1, 24 h, Figure 4B
  activation of hPXR (dose–response): only minor activation
hPXR [6]
  hPXR interaction with SRC1 / activation (mammalian two-hybrid): no activation
hCAR2 [4]; Figure 4A
  activation of hCAR2 (dose–response): activated hCAR2 and PPARα with similar potency
hCAR2 [4]; Figure 4B
  activation of hCAR2 (dose–response): only minor activation
